Measurements taken from patent US20240024291A1, “Uses of Dihydroorotate Dehydrogenase Inhibitors” (University of Maryland, Baltimore, priority 2022, published 2024).

Columns and labels:
[1] = test system: Mayo 6; test: Approved Oncology Drugs Set screen alone and combined with DHODHi; settings: for Alone (growth, drug alone): Mayo 6, drug alone; for Combination (growth, drug combined with DHODHi): Mayo 6, drug combined with DHODHi (10 μM)
Protocol: To identify potential small molecules that can synergize with DHODHi, the Approved Oncology Drugs Set (NIH Developmental Therapeutics Program) was screened alone and combined with DHODHi (10 μM) against Mayo 6.

[2] = test system: Mayo 39 neurospheres; test: Sorafenib and DHODHi combination, SynergyFinder; format: cell-based, human; settings: Mayo 39 GBMs
[3] = test system: Mayo 6 neurospheres; test: Sorafenib and DHODHi combination, SynergyFinder
[4] = test system: EGFRviii expressing 08-387 and 913 glioblastoma cells; test: Gemcitabine sensitization assay (Alamar blue); format: cell-based, human; settings: varying dosages of gemcitabine and 0.05 nM of compound 1
Protocol: Ten thousand 08-387 or 913 glioblastoma cells per well were seeded in a 96 well plate. […] Post 72 hr of treatment, cell viability was calculated on Alamar blue absorbance reading.
To further evaluate the potential role of EGFR in compound 1 resistance, the 913 and 08-387 neurosphere lines were transduced with lentiviruses encoding EGFRvIll or GFP (as control) and these neurospheres were challenged with a relatively high dose of 1 mM compound 1.

Row | Structure (SMILES) | Alone (growth, drug alone) [1] | Combination (growth, drug combined with DHODHi) [1] | also measured
1 | C=CC(=O)Nc1cc(Nc2nccc(-c3cn(C)c4ccccc34)n2)c(OC)cc1N(C)CCN(C)C [Osimertinib, osimertinib] | 0.35 | 0.0001 | –
2 | CNC(=O)c1cc(Oc2ccc(NC(=O)Nc3ccc(Cl)c(C(F)(F)F)c3)c(F)c2)ccn1 [Regorafenib, regorafenib] | 1.00 | 0.64 | –
3 | CNC(=O)c1cc(Oc2ccc(NC(=O)Nc3ccc(Cl)c(C(F)(F)F)c3)cc2)ccn1 [Sorafenib] | – | – | sensitization to DHODHi by Sorafenib [2]: moderately sensitized; most synergistic area score ([3]; Mayo 6, Sorafenib in combination with DHODHi): 10.48; sensitization to DHODHi by Sorafenib ([3]; Mayo 6 GBMs, SynergyFinder): moderately sensitized
4 | Nc1ccn([C@@H]2O[C@H](CO)[C@@H](O)C2(F)F)c(=O)n1 [gemcitabine, reference compound] | – | – | sensitivity of glioblastomas to gemcitabine [4]: sensitive
